Several values for one entry are separate records, joined by “and”; a condition that tells them apart may be missing. Equal entries are not always repeated.
What was measured:
[1] = 101 kPa, Liquid
[2] = xn = mol fraction of the nth substance listed; settings: 101 kPa, Liquid

CCn1cc[n+](C)c1.O=S(=O)([N-]S(=O)(=O)C(F)(F)C(F)(F)F)C(F)(F)C(F)(F)F
[1]
Settings | mass density
298.15 K | 1593.2 kg/m3
303.15 K | 1587.6 kg/m3 and 1587.3 kg/m3
313.15 K | 1576.7 kg/m3

CCn1cc[n+](C)c1.O=S(=O)([N-]S(=O)(=O)C(F)(F)C(F)(F)F)C(F)(F)C(F)(F)F + CC(C)=O
mass density [kg/m3], [2]
Settings | 298.15 K | 303.15 K | 313.15 K
x2 = 0 | 1593.2 | 1587.3 | 1576.7
x2 = 0.0807 | 1576.8 | 1571.1 | 1560.2
x2 = 0.1417 | 1563.1 | 1557.4 | 1546.4
x2 = 0.2521 | 1534.6 | 1528.8 | 1517.7
x2 = 0.2791 | 1526.6 | 1520.8 | 1509.6
x2 = 0.415 | 1479.2 | 1473.3 | 1462.2
x2 = 0.5195 | 1431.8 | 1425.8 | 1414.8
x2 = 0.5676 | 1405.5 | 1399.5 | 1388.4
x2 = 0.7092 | 1303.1 | 1297.2 | 1285.7
x2 = 0.755 | 1258.2 | 1252.2 | 1240.8
x2 = 0.8137 | 1188.4 | 1182.5 | 1170.8
x2 = 0.8927 | 1062 | 1055.9 | 1044.3
x2 = 0.9502 | 935 | 929.1 | 917.6

CCn1cc[n+](C)c1.O=S(=O)([N-]S(=O)(=O)C(F)(F)C(F)(F)F)C(F)(F)C(F)(F)F + CO
mass density [kg/m3], [2]
Settings | x2 = 0 | x2 = 0.0584 | x2 = 0.1116 | x2 = 0.1686 | x2 = 0.2956 | x2 = 0.5104 | x2 = 0.6083 | x2 = 0.706 | x2 = 0.8237 | x2 = 0.9033
298.15 K | 1593.2 | 1586.2 | 1579.4 | 1571.3 | 1549.7 | 1494.6 | 1455.3 | 1398.9 | 1285.9 | 1148.2
303.15 K | 1587.6 | 1580.5 | 1573.7 | 1565.6 | 1544 | 1488.9 | 1449.6 | 1393.2 | 1280.2 | 1142.6
313.15 K | 1576.7 | 1569.5 | 1562.6 | 1554.5 | 1532.8 | 1477.7 | 1438.3 | 1382 | 1269.3 | 1132

CCn1cc[n+](C)c1.COCCOCCOS(=O)(=O)[O-] [1-ethyl-3-methylimidazolium 2-(2-methoxyethoxy) ethylsulfate] + CO
[2], 298.15 K
Settings | speed of sound [m/s]
x2 = 0.1791 | 1677.6
x2 = 0.356 | 1647
x2 = 0.4548 | 1620
x2 = 0.5356 | 1597.2
x2 = 0.6298 | 1563.6
x2 = 0.7412 | 1499.4
x2 = 0.7987 | 1453.2
x2 = 0.8527 | 1387.5
x2 = 0.9011 | 1324.8
x2 = 0.9298 | 1270.8
x2 = 0.962 | 1201.2
x2 = 0.9829 | 1158

CC(C)=O [acetone]
[1]
Settings | mass density [kg/m3]
298.15 K | 784.1
303.15 K | 778.4
313.15 K | 766.9

CC(C)=O [acetone] + CCn1cc[n+](C)c1.O=S(=O)([N-]S(=O)(=O)C(F)(F)C(F)(F)F)C(F)(F)C(F)(F)F
[2], x1 = 1
Settings | mass density [kg/m3]
298.15 K | 784.1
303.15 K | 778.4
313.15 K | 766.9

CO [methanol] + CCn1cc[n+](C)c1.O=S(=O)([N-]S(=O)(=O)C(F)(F)C(F)(F)F)C(F)(F)C(F)(F)F
[2], x1 = 1
Settings | mass density [kg/m3]
298.15 K | 786.6
303.15 K | 781.9
313.15 K | 772.6

— the NIST ThermoML archive (doi:10.1021/je700648c)
